The source of these data is US11332459B2 (TEIJIN PHARMA LIMITED, priority 2017, dated 2022).

The target in the experiment is T1, human TRPC6 (Homo sapiens, UniProt Q9Y210).
T1 construct: expressed in transfected cells
T1 sequence (Q9Y210 1-931): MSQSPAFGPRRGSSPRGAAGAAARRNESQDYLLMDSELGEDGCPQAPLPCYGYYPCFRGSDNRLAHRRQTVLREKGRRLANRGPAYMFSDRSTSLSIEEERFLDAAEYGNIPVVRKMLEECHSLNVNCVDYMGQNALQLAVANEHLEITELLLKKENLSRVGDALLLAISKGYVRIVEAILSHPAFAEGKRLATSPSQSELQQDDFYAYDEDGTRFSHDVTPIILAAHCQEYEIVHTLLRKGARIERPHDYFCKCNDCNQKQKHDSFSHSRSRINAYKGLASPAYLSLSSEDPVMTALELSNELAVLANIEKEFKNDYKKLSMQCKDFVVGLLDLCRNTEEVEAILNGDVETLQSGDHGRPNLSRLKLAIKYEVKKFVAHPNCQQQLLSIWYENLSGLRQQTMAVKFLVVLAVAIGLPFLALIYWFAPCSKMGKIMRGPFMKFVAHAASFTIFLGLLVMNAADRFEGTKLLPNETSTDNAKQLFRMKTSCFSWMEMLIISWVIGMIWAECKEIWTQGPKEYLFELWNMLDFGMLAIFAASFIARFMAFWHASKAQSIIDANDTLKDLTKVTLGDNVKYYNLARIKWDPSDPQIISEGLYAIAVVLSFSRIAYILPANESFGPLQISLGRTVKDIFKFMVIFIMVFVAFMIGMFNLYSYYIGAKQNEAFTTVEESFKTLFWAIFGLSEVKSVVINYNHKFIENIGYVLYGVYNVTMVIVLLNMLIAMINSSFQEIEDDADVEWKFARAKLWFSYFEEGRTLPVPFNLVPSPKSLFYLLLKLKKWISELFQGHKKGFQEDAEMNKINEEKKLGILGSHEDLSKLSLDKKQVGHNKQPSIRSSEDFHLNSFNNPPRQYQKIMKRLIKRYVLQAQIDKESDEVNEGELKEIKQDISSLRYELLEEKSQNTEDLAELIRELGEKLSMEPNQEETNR
Nature of the experiment: TRPC6 calcium flux assay (FLIPR, OAG-stimulated calcium influx). Type of experiment: cell-based. The note with it: HEK293 cells stably transfected with human TRPC6, read-out: hTRPC6 Potency. The method in brief: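 HEK293 cells stably expressing human TRPC6, loaded with calcium dye 90–120 min at RT, then given compound for 25 min before OAG (50 uM final, 0.5% DMSO) in HEPES buffer pH 7.2 with 2 mM CaCl2. Background-subtracted FLIPR peak over 180 s normalized to OAG vs buffer; IC50 from dose plot.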

Turning to `N[C@@H]1CN(c2nc3cc(Br)ccc3n2CC(=O)N2CCC2)CC[C@H]1F` [Example 470, 2-(2-((3R,4R)-3-amino-4-fluoropiperidin-1-yl)-5-bromo-1H-benzo[d]imidazol-1-yl)-1-(azetidin-1-yl)ethan-1-one], the IC50 was 0.219 µM.
For `CN(C)C(=O)Cn1c(N2CC[C@H](F)[C@H](N)C2)nc2cc(Cl)ccc21` [Example 471, 2-(2-((3R,4S)-3-amino-4-fluoropiperidin-1-yl)-5-chloro-1H-benzo[d]imidazol-1-yl)-N,N-dimethylacetamide], the IC50 came out at 0.36 µM.
The value for `CN(CC(F)(F)F)C(=O)Cn1c(N2CCCC3(CCCN3)C2)nc2ccc(F)cc21` (stereo not drawn) [Example 472, 2-(6-fluoro-2-(1,7-diazaspiro[4.5]decan-7-yl)-1H-benzo[d]imidazol-1-yl)-N-methyl-N-(2,2,2-trifluoroethyl)acetamide] was 0.383 µM; that for `N[C@@H]1CN(c2nc3cc(C(F)(F)F)ccc3n2CC(=O)N2CCOCC2)CC[C@H]1F` [Example 473, 2-(2-((3R,4R)-3-amino-4-fluoropiperidin-1-yl)-5-(trifluoromethyl)-1H-benzo[d]imidazol-1-yl)-1-morpholinoethan-1-one] was 0.398 µM.
Turning to `CN(C)C(=O)Cn1c(N2CC[C@@H](F)[C@H](N)C2)nc2cc(OC(F)(F)F)ccc21` [Example 474, 2-(2-((3R,4R)-3-amino-4-fluoropiperidin-1-yl)-5-(trifluoromethoxy)-1H-benzo[d]imidazol-1-yl)-N,N-dimethylacetamide], the IC50 was found to be 0.411 µM.
The same measure for `N[C@@H]1CN(c2nc3cc(OC(F)(F)F)ccc3n2CC(=O)N2CCOCC2)CC[C@H]1F` [Example 475, 2-(2-((3R,4R)-3-amino-4-fluoropiperidin-1-yl)-5-(trifluoromethoxy)-1H-benzo[d]imidazol-1-yl)-1-morpholinoethan-1-one]: 0.62 µM; for `COc1cc(F)cc2nc(N3CC[C@@H](F)[C@H](N)C3)n(Cc3ccc(C#N)cn3)c12` [Example 476]: 0.763 µM; for `CO[C@H]1CCN(c2nc3cc(F)ccc3n2Cc2ncc(Cl)cn2)C[C@H]1N` [Example 477, (3R,4S)-1-(1-((5-chloropyrimidin-2-yl)methyl)-5-fluoro-1H-benzo[d]imidazol-2-yl)-4-methoxypiperidin-3-amine]: 1.03 µM.
`N[C@@H]1CN(c2nc3cc(C(F)(F)F)ccc3n2CC(=O)N2CCOCC2)CC[C@@H]1F` [Example 478, 2-(2-((3R,4S)-3-amino-4-fluoropiperidin-1-yl)-5-(trifluoromethyl)-1H-benzo[d]imidazol-1-yl)-1-morpholinoethan-1-one]: the IC50 came out at 1.05 µM.
The same measure for `CN[C@@H]1CN(c2nc3cc(F)ccc3n2CC(=O)N(C)CC(F)(F)F)CC[C@H]1F` [Example 479, 2-(5-fluoro-2-((3R,4R)-4-fluoro-3-(methylamino)piperidin-1-yl)-1H-benzo[d]imidazol-1-yl)-N-methyl-N-(2,2,2-trifluoroethyl)acetamide]: 1.2 µM; for `CC1CN(c2nc3ccc(F)cc3n2CC(=O)N(C)CC(F)(F)F)CC1N` (stereo not drawn) [Example 480, 2-(2-(3-amino-4-methylpyrrolidin-1-yl)-6-fluoro-1H-benzo[d]imidazol-1-yl)-N-methyl-N-(2,2,2-trifluoroethyl)acetamide]: 1.2 µM.
On to `CN(CC(F)(F)F)C(=O)Cn1c(N2CC[C@@H](O)[C@H](N)C2)nc2ccc(F)cc21` [Example 481, 2-(2-((3R,4R)-3-amino-4-hydroxypiperidin-1-yl)-6-fluoro-1H-benzo[d]imidazol-1-yl)-N-methyl-N-(2,2,2-trifluoroethyl)acetamide], for which the IC50 was 2.4 µM.
As to `CN(CC(F)(F)F)C(=O)Cn1c(N2CCC(F)(F)[C@H](N)C2)nc2cc(F)ccc21` [Example 482, (R)-2-(2-(3-amino-4,4-difluoropiperidin-1-yl)-5-fluoro-1H-benzo[d]imidazol-1-yl)-N-methyl-N-(2,2,2-trifluoroethyl)acetamide], the IC50 came to 2.74 µM.
Regarding `CO[C@@H]1CCN(c2nc3cc(F)ccc3n2CC(=O)N(C)CC(F)(F)F)C[C@H]1N` [Example 483, 2-(2-((3R,4R)-3-amino-4-methoxypiperidin-1-yl)-5-fluoro-1H-benzo[d]imidazol-1-yl)-N-methyl-N-(2,2,2-trifluoroethyl)acetamide], the IC50 stood at 2.74 µM.
On to `CO[C@@H]1CCN(c2nc3ccc(F)cc3n2CC(=O)N(C)CC(F)(F)F)C[C@H]1N` [Example 485, 2-(2-((3R,4R)-3-amino-4-methoxypiperidin-1-yl)-6-fluoro-1H-benzo[d]imidazol-1-yl)-N-methyl-N-(2,2,2-trifluoroethyl)acetamide], for which the IC50 was > 3.75 µM.
For the compound `CN(CC(F)(F)F)C(=O)Cn1c(N2CCC(F)(CN)C2)nc2ccc(F)cc21` (stereo not drawn) [Example 486, 2-(2-(3-(aminomethyl)-3-fluoropyrrolidin-1-yl)-6-fluoro-1H-benzo[d]imidazol-1-yl)-N-methyl-N-(2,2,2-trifluoroethyl)acetamide], the IC50 is > 1.75 µM.
For `CN(CC(F)(F)F)C(=O)Cn1c(N2CCC(F)(CN)C2)nc2cc(F)ccc21` (stereo not drawn) [Example 487, 2-(2-(3-(aminomethyl)-3-fluoropyrrolidin-1-yl)-5-fluoro-1H-benzo[d]imidazol-1-yl)-N-methyl-N-(2,2,2-trifluoroethyl)acetamide], the IC50 was > 3.75 µM.
With `CN(CC(F)(F)F)C(=O)Cn1c(N2CC[C@H]3OCCN[C@@H]3C2)nc2ccc(F)cc21` [Example 488, 2-(6-fluoro-2-((4aR,8aR)-hexahydro-2H-pyrido[4,3-b][1,4]oxazin-6(5H)-yl)-1H-benzo[d]imidazol-1-yl)-N-methyl-N-(2,2,2-trifluoroethyl)acetamide], the IC50 is > 3.75 µM.
Turning to `CN(CC(F)(F)F)C(=O)Cn1c(N2CC[C@H](N)C2)nc2ccc(F)cc21` [Example 489, (S)-2-(2-(3-aminopyrrolidin-1-yl)-6-fluoro-1H-benzo[d]imidazol-1-yl)-N-methyl-N-(2,2,2-trifluoroethyl)acetamide], the IC50 was > 3.75 µM.
Take `CN(CC(F)(F)F)C(=O)Cn1c(N2CC[C@@H](N)C2)nc2ccc(F)cc21` [Example 490, (R)-2-(2-(3-aminopyrrolidin-1-yl)-6-fluoro-1H-benzo[d]imidazol-1-yl)-N-methyl-N-(2,2,2-trifluoroethyl)acetamide]: the IC50 was > 3.75 µM.
As for `CN(CC(F)(F)F)C(=O)Cn1c(N2CC[C@@H](CN)C2)nc2ccc(F)cc21` [Example 491, (S)-2-(2-(3-(aminomethyl)pyrrolidin-1-yl)-6-fluoro-1H-benzo[d]imidazol-1-yl)-N-methyl-N-(2,2,2-trifluoroethyl)acetamide], the IC50 is > 3.75 µM.
As for `CN(CC(F)(F)F)C(=O)Cn1c(N2CC[C@@H]3OCCN[C@H]3C2)nc2cc(F)ccc21` [Example 493, 2-(5-fluoro-2-((4aS,8aS)-hexahydro-2H-pyrido[4,3-b][1,4]oxazin-6(5H)-yl)-1H-benzo[d]imidazol-1-yl)-N-methyl-N-(2,2,2-trifluoroethyl)acetamide], the IC50 is > 3.75 µM.
As to `N[C@@H]1CN(c2nc3cc(F)ccc3n2Cc2ncc(Cl)cn2)CC[C@H]1O` [Example 494, (3R,4R)-3-amino-1-(1-((5-chloropyrimidin-2-yl)methyl)-5-fluoro-1H-benzo[d]imidazol-2-yl)piperidin-4-ol], the IC50 was 0.0126 µM.
With `N[C@@H]1CN(c2nc3ccc(Cl)cc3n2CC(=O)N2CCOCC2)CC[C@H]1F` [Example 495, 2-(2-((3R,4R)-3-amino-4-fluoropiperidin-1-yl)-6-chloro-1H-benzo[d]imidazol-1-yl)-1-morpholinoethanone], the IC50 was determined as 0.0127 µM.
Regarding `N[C@@H]1CN(c2nc3cc(Cl)ccc3n2CC(=O)N2CCOCC2)CC[C@H]1F` [Example 497, -(2-((3R,4R)-3-amino-4-fluoropiperidin-1-yl)-5-chloro-1H-benzo[d]imidazol-1-yl)-1-morpholinoethanone], the IC50 is 0.094 µM.
As to `C[C@H](c1ncc(Cl)cn1)n1c(N2CC[C@@H](F)[C@H](N)C2)nc2cc(F)c(F)cc21` [Example 498, (3R,4R)-1-(1-((R)-1-(5-chloropyrimidin-2-yl)ethyl)-5,6-difluoro-1H-benzo[d]imidazol-2-yl)-4-fluoropiperidin-3-amine], the IC50 is 0.00188 µM.
As to `N#Cc1ccc(Cn2c(N3CC[C@@H](F)[C@H](N)C3)nc3ncc(C(F)(F)F)cc32)nc1` [Example 499, 6-((2-((3R,4R)-3-amino-4-fluoropiperidin-1-yl)-6-(trifluoromethyl)-1H-imidazo[4,5-b]pyridin-1-yl)methyl)nicotinonitrile], the IC50 stood at 0.00258 µM.
